Measured values as given in patent publication US9901097B2, “Agricultural and horticultural fungicidal composition” (Nippon Soda Co., Ltd., priority 2011, dated 2018).

What follows are molecules tested on Botrytis cinerea (assay: Sterilization test (growth inhibition of Botrytis cinerea in potato dextrose medium, 96-well microplate, turbidity 405 nm)). Settings: Botrytis cinerea; Example 1 (Tables 1-5); drug II alone 0.02 ppm; read-out: Growth inhibition rate.
Type: cell-based
Protocol: The solutions thus obtained were mixed to prepare fungicidal compositions.
Conidia of Botrytis cinerea were added to and dispersed in a potato dextrose culture medium. A fungicidal composition was added thereto and mixed. This was dispensed in a 96-well microplate and cultured at 20° C. for 3 days in a dark setting. Then, the turbidity was measured at a wavelength of 405 nm in a microplate reader. From comparison with the measured value of turbidity in the case of non-treatment (without the addition of the fungicidal composition), the growth inhibition rate of Botrytis cinerea (%) was calculated. The test was carried out in duplicate. Further, the expected value of the growth inhibition was calculated based on Colby's equation.
(§1) In addition, the Colby's equation is E=M+N−MN/100. Here, E is the expected value of a growth inhibition rate (%), M is the growth inhibition rate (%) calculated from the measurement with the use of the drug I alone, and N is the growth inhibition rate (%) calculated from the measurement with the use of the drug II alone. Additionally, in Tables, the expected values with the use of the drug alone were not shown, because they were the same as the values calculated from the measurement.
At the concentrations shown in Tables 6 to 8, the drug I and the drug II were dissolved separately in dimethyl sulfoxide. The obtained solution was mixed to prepare a fungicidal composition.
Using the same methods as in Example 1 and Comparative Example 1, the sterilization test was carried out. Additionally, in Tables, the expected values with the use of the drug alone were not shown, because they were the same as the values calculated from the measurement.

| Molecule | inhibition at 0.02 ppm [%] |
| --- | --- |
| COC(=O)NC(=S)Nc1ccccc1NC(=S)NC(=O)OC [Drug 3, Thiophanate-methyl] | 0 |
| N#Cc1c[nH]cc1-c1cccc2c1OC(F)(F)O2 [Drug 20, Fludioxonil] | 39 |
| O=[N+]([O-])c1cc(C(F)(F)F)c(Cl)c([N+](=O)[O-])c1Nc1ncc(C(F)(F)F)cc1Cl [Drug 31, Fluazinam] | 20 |
| O=C1C2CC=CCC2C(=O)N1SC(Cl)(Cl)Cl (stereo not drawn) [Drug 33, Captan] | 28 |
| Cc1cc(C2CC2)nc(Nc2ccccc2)n1 [Drug 34, Cyprodinil] | 0 |
| O=C1c2ccccc2C(=O)N1SC(Cl)(Cl)Cl [Drug 37, Folpet] | 10 |

Same assay, conditions: Botrytis cinerea; Example 1 (Tables 1-5); drug II alone 0.08 ppm; read-out: Growth inhibition rate

| Molecule | inhibition at 0.08 ppm [%] |
| --- | --- |
| CCO[PH](=O)O [Drug 13, Fosetyl] | 2 |
| CC(C)(C)C(O)(CCc1ccc(Cl)cc1)Cn1cncn1 (stereo not drawn) [Drug 22, Tebuconazole] | 34 |
| CN(C)C(=S)SSC(=S)N(C)C [Drug 24, Thiram] | 30 |
| N#Cc1c(Cl)c(Cl)c(Cl)c(C#N)c1Cl [Drug 25, Chlorothalonil] | 4 |
| CON=C(C(=O)OC)c1ccccc1CON=C(C)c1cccc(C(F)(F)F)c1 [Drug 26, Trifloxystrobin] | 32 |
| CO/N=C(/C(=O)OC)c1ccccc1COc1ccccc1C [Drug 28, Kresoxim-methyl] | 20 |
| O=C(NCCc1ncc(C(F)(F)F)cc1Cl)c1ccccc1C(F)(F)F [Drug 30, Fluopyram] | 16 |

Same assay, conditions: Botrytis cinerea; Example 1 (Tables 1-5); drug II alone 0.4 ppm; read-out: Growth inhibition rate

| Molecule | inhibition at 0.4 ppm [%] |
| --- | --- |
| CCC(C)(NC(=O)c1cc(Cl)c(C)c(Cl)c1)C(=O)CCl (stereo not drawn) [Drug 12, Zoxamide] | 3 |
| CC1COC(Cn2cncn2)(c2ccc(Oc3ccc(Cl)cc3)cc2Cl)O1 (stereo not drawn) [Drug 21, Difenoconazole] | 36 |
| CC1=C(C(=O)Nc2ccccc2)SCCO1 [Drug 23, Carboxin] | 0 |
| CC(C)NC(=O)N1CC(=O)N(c2cc(Cl)cc(Cl)c2)C1=O [Drug 36, Iprodione] | 39 |

Same assay, conditions: Botrytis cinerea; Example 1 (Tables 1-5); drug II alone 2 ppm; read-out: Growth inhibition rate

| Molecule | inhibition at 2 ppm [%] |
| --- | --- |
| C[C@@]1(c2ccc(Oc3ccccc3)cc2)OC(=O)N(Nc2ccccc2)C1=O (racemic) [Drug 9, Famoxadone] | 0 |
| CCCOC/C(=N\c1ccc(Cl)cc1C(F)(F)F)n1ccnc1 [Drug 2, Triflumizole] | 59 |
| CCNC(=O)NC(=O)/C(C#N)=N/OC [Drug 7, Cymoxanil] | 0 |

Same assay, conditions: Botrytis cinerea; Example 1 (Tables 1-5); drug II alone 10 ppm; read-out: Growth inhibition rate

| Molecule | inhibition at 10 ppm [%] |
| --- | --- |
| O=C(Cc1ccccc1)N/C(=N\OCC1CC1)c1c(C(F)(F)F)ccc(F)c1F [Drug 1, Cyflufenamid] | 9 |
| COCC(=O)N(c1c(C)cccc1C)C(C)C(=O)OC (stereo not drawn) [Drug 6, Metalaxyl] | 0 |
| CC(C)OC(=O)N[C@H](C(=O)N[C@H](C)c1nc2ccc(F)cc2s1)C(C)C [Drug 8, Benthiavalicarb-isopropyl] | 0 |
| Cc1ccc(-c2c(Cl)nc(C#N)n2S(=O)(=O)N(C)C)cc1 [Drug 14, Cyazofamid] | 0 |
| COc1cc(C)c(C(=O)c2c(OC)ccc(Br)c2C)c(OC)c1OC [Drug 16, Metrafenone] | 0 |
| CC(C)Oc1cccc(NC(=O)c2ccccc2C(F)(F)F)c1 [Drug 18, Flutolanil] | 0 |
| COP(=S)(OC)Oc1c(Cl)cc(C)cc1Cl [Drug 35, Tolclofos-methyl] | 35 |
| Cc1cc(C(F)(F)F)nn1CC(=O)N1CCC(c2nc(C(=O)N(C)C3CCCc4ccccc43)cs2)CC1 (stereo not drawn) [Drug 39] | 13 |

Same assay, conditions: Botrytis cinerea; Example 2 (Tables 6-8); drug II alone 10 ppm; read-out: Growth inhibition rate

| Molecule | inhibition at 10 ppm [%] |
| --- | --- |
| CC(C)OC(=O)C(C(=O)OC(C)C)=C1SCCS1 [Drug 41, Isoprothiolane] | 10 |
| O=[N+]([O-])NC1=NCCN1Cc1ccc(Cl)nc1 [Drug 45, Imidacloprid] | 0 |
| CN1COCN(Cc2cnc(Cl)s2)/C1=N\[N+](=O)[O-] [Drug 46, Thiamethoxam] | 0 |
| CN/C(=N\[N+](=O)[O-])NCc1cnc(Cl)s1 [Drug 47, Clothianidin] | 4 |
| CCOP(=S)(OCC)Oc1nc(Cl)c(Cl)cc1Cl [Drug 48, Chlorpyrifos] | 0 |
| CS/C(C)=N\OC(=O)N(C)SN(C)C(=O)O/N=C(\C)SC [Drug 49, Thiodicarb] | 0 |
| CN/C(=N/CC1CCOC1)N[N+](=O)[O-] (stereo not drawn) [Drug 51, Dinotefuran] | 0 |
| CCOc1ccc(C(C)(C)COCc2cccc(Oc3ccccc3)c2)cc1 [Drug 52, Etofenprox] | 4 |
| N#Cc1nn(-c2c(Cl)cc(C(F)(F)F)cc2Cl)c(N)c1[S+]([O-])C(F)(F)F (stereo not drawn) [Drug 53, Fipronil] | 12 |
| CC[S+]([O-])c1c(C#N)nn(-c2c(Cl)cc(C(F)(F)F)cc2Cl)c1N (stereo not drawn) [Drug 54, Ethiprole] | 2 |
| CC1=NNC(=O)N(/N=C/c2cccnc2)C1 [Drug 55, Pymetrozine] | 3 |
| Cc1nc(C(F)(F)F)c(C(=O)Nc2c(Br)cc(OC(F)(F)F)cc2Br)s1 [Drug 56, Thifluzamide] | 28 |
| CC(C)N1C(=O)N(c2ccccc2)CS/C1=N\C(C)(C)C [Drug 57, Buprofezin] | 0 |

Same assay, conditions: Example 1 (Tables 1-5); drug II alone 0.08 ppm

| Molecule | Growth inhibition rate [%] |
| --- | --- |
| CO/C=C(/C(=O)OC)c1ccccc1Oc1cc(Oc2ccccc2C#N)ncn1 [Drug 27, Azoxystrobin] | 30 |

Same assay, conditions: Example 1 (Tables 1-5); drug II alone 2 ppm

| Molecule | Growth inhibition rate [%] |
| --- | --- |
| Fc1ccc(Oc2ccnc3cc(Cl)cc(Cl)c23)cc1 [Drug 17, Quinoxifen] | 0 |
| Manzeb [Drug 32] | 11 |

Same assay, conditions: Example 1 (Tables 1-5); drug II alone 10 ppm

| Molecule | Growth inhibition rate [%] |
| --- | --- |
| CCCCCCCCc1c(CC)nc2ncnn2c1N [Drug 10, Ametoctradin] | 0 |
| O=C(NCc1ncc(C(F)(F)F)cc1Cl)c1c(Cl)cccc1Cl [Drug 11, Fluopicolide] | 6 |
| CCCOc1nc2ccc(I)cc2c(=O)n1CCC [Drug 15, Proquinazid] | 0 |
| Cc1c(Cl)cc(-c2ccc(=O)[nH]n2)cc1Cl [Drug 19, Diclomezin] | 0 |

Same assay, conditions: Example 2 (Tables 6-8); drug II alone 10 ppm

| Molecule | Growth inhibition rate [%] |
| --- | --- |
| CNC(=O)/C(=N/OC)c1ccccc1CO/N=C(C)/C(=N/OC)C(/C)=N/OC [Drug 40, Orysastrobin] | 58 |
| Spinosad [Drug 50] | 0 |

The molecules below were run on cucumber gray mold disease pathogens (Botrytis cinerea) (assay: Control test for cucumber gray mold disease (sprayed cucumber seedlings)). Settings: Botrytis cinerea, 96 h; 4 days after inoculation; drug II alone 0.4 ppm; read-out: Control effect (%).
Type: in vivo
Protocol: The drug I and the drug II were dissolved in an organic solvent and a surfactant, and the prepared mixed emulsifiable concentrate was diluted with water to a predetermined concentration, and sprayed to cucumber seedlings that had been cultivated in unglazed pots (cultivar “Sagamihanjiro” cotyledon stage). Additionally, in Tables, the symbol A indicating the drug I represents a nitrogen-containing heterocyclic compound represented by the formula (A), the symbol B indicating the drug I represents a nitrogen-containing heterocyclic compound represented by the formula (B), and the symbol C indicating the drug I represents a nitrogen-containing heterocyclic compound represented by the formula (C). Further, the number indicating the drug II represents each of the compounds described in the numbers described above. Additionally, “-” in Tables represents that the drug was not used.
After air-drying at room temperature, a suspension of the conidia of cucumber gray mold disease pathogens (Botrytis cinerea) was inoculated by dropwise addition and held in a dark room at 20° C. with a high humidity for 3, 4, or 5 days. By investigation on the state of lesion appearance in leaves with comparison with a non-treatment case, the controlling effect was determined. The test was carried out in duplicate. In addition, the expected value of the controlling effect was calculated based on Colby's equation.
At the same time, in Comparative Example, in the case of using the drug I only and the case of using the drug II only, the test was carried out by the same method.
as §1, with “Additionally,” for “In addition,”, “the controlling effect” for “a growth inhibition rate”, “controlling effect” for “growth inhibition rate”, “were” for “were not shown, because they were”, “measurement, and were thus not shown.” for “measurement.”

| Molecule | pest or weed control at 0.4 ppm [%] |
| --- | --- |
| O=C(Nc1ccccc1-c1ccc(Cl)cc1)c1cccnc1Cl [Drug 58, Boscalid] | 0 |

Same assay, conditions: Botrytis cinerea, 96 h; 4 days after inoculation; drug II alone 1.6 ppm; read-out: Control effect (%)

| Molecule | pest or weed control at 1.6 ppm [%] |
| --- | --- |
| O=C(Nc1ccccc1-c1ccc(Cl)cc1)c1cccnc1Cl [Drug 58, Boscalid] | 0 |

Same assay, conditions: Botrytis cinerea, 96 h; 4 days after inoculation; drug II alone 6.3 ppm; read-out: Control effect (%)

| Molecule | pest or weed control at 6.3 ppm [%] |
| --- | --- |
| O=C(Nc1ccccc1-c1ccc(Cl)cc1)c1cccnc1Cl [Drug 58, Boscalid] | 39 |

Same assay, conditions: Botrytis cinerea, 96 h; 4 days after inoculation; drug II alone 100 ppm; read-out: Control effect (%)

| Molecule | pest or weed control at 100 ppm [%] |
| --- | --- |
| CCCOC/C(=N\c1ccc(Cl)cc1C(F)(F)F)n1ccnc1 [Drug 2, Triflumizole] | 1 |

Same assay, conditions: Botrytis cinerea, 96 h; 4 days after inoculation; drug II alone 400 ppm; read-out: Control effect (%)

| Molecule | pest or weed control at 400 ppm [%] |
| --- | --- |
| CCOCn1c(-c2ccc(Cl)cc2)c(C#N)c(Br)c1C(F)(F)F [Drug 59, Chlorfenapyr] | 0 |

Same assay, conditions: Botrytis cinerea, 96 h; Table 9; 4 days after inoculation; drug II alone 1.6 ppm; read-out: Control effect

| Molecule | pest or weed control at 1.6 ppm [%] |
| --- | --- |
| COC(=O)NC(=S)Nc1ccccc1NC(=S)NC(=O)OC [Drug 3, Thiophanate-methyl] | 3 |

Same assay, conditions: Botrytis cinerea, 96 h; Table 9; 4 days after inoculation; drug II alone 400 ppm; read-out: Control effect

| Molecule | pest or weed control at 400 ppm [%] |
| --- | --- |
| CCCOC/C(=N\c1ccc(Cl)cc1C(F)(F)F)n1ccnc1 [Drug 2, Triflumizole] | 64 |

Same assay, conditions: Botrytis cinerea, 120 h; Table 10; 5 days after inoculation; drug II alone 6.3 ppm; read-out: Control effect

| Molecule | pest or weed control at 6.3 ppm [%] |
| --- | --- |
| COC(=O)NC(=S)Nc1ccccc1NC(=S)NC(=O)OC [Drug 3, Thiophanate-methyl] | 89 |

Same assay, conditions: Botrytis cinerea, 120 h; Table 10; 5 days after inoculation; drug II alone 25 ppm; read-out: Control effect

| Molecule | pest or weed control at 25 ppm [%] |
| --- | --- |
| O=C(Cc1ccccc1)N/C(=N\OCC1CC1)c1c(C(F)(F)F)ccc(F)c1F [Drug 1, Cyflufenamid] | 0 |

Same assay, conditions: Botrytis cinerea, 120 h; Table 10; 5 days after inoculation; drug II alone 100 ppm; read-out: Control effect

| Molecule | pest or weed control at 100 ppm [%] |
| --- | --- |
| CCCOC/C(=N\c1ccc(Cl)cc1C(F)(F)F)n1ccnc1 [Drug 2, Triflumizole] | 33 |
